# Data taken from patent US20110183904A1, “METHODS AND COMPOSITIONS FOR ALTERING BEHAVIOR ASSOCIATED WITH AUTISM SPECTRUM DISORDER” (The Children's Mercy Hospital, priority 2008, published 2011).
# Several values for one entry are separate records, joined by “and”; a condition that tells them apart may be missing. Identical values can stand only once. Entries after “also recorded” stand apart in the source; their conditions may differ.
# Tests used:
# Gαs in PBMCs = conditions: bipolar illness and schizophrenia; cited from earlier work
# Gαs protein in PBMCs = assay: Gαs protein expression in PBMCs exposed to vasopressin (immunoblot); type: cell-based, human
# Procedure: (§1) Membrane preparation for membrane-associated proteins. For protein studies, PBMC's were manipulated at 4° C., as previously described in Example 4. PBMC's were individually homogenized (1:30, wt/vol) in ice-cold 0.25 M sucrose and 50 mM Tris-HCL, (pH 7.6) in a Dounce homogenizer, centrifuged twice at 800×g for 5 min before centrifugation of the supernatants at 30,000×g for 60 min. The pellet was resuspended in assay buffer and used directly in the binding assay. Protein concentration was determined by BCA protein assay kit (Pierce, Rockford, Ill.) using bovine serum albumin (BSA) as a standard.
# (§2) Immunoblot analysis for membrane-associated proteins. Total membrane proteins were prepared as for receptor assays above. Samples were electrophoresed in 12% Tris-HCl resolving gels and transferred to 0.45 μm nitrocellulose membranes (Bio-Rad, Hercules, Calif.) by electroblotting. […] After three washes in TBST, membranes were incubated for 1 h in TBST and 1% non fat dry milk with horseradish peroxidase conjugated 2° antibodies (Jackson Immunoresearch, West Grove, Pa.). Bands were visualized by exposure of the membranes to autoradiographic film (MidSci, St. Louis, Mo.). The membranes were then stripped with Restore™ Western Blot Stripping Buffer (Pierce, Rockford Ill.) for 30 min at 37° C. and reprobed for actin protein as an internal control. The bands were quantified using a densitometer (GE Healthcare, Piscataway, N.J.).
# (§3) Specific G protein antibodies. Specific Gαs and Gαq/11 antibodies made in rabbit without cross reactivity to other G proteins were used at a 1:500 dilution and originated from Santa Cruz Biotechnology (Santa Cruz, Calif.).
# Gαq mRNA in PBMCs = Gαq mRNA in PBMCs exposed to vasopressin (real-time RT-PCR); type: cell-based, human
# Procedure: (§4) Samples were taken from the patients, as described in Example 1, and mRNA was isolated from cells exposed to vasopressin and analyzed for amount of mRNA expressing Gαs and Gαq.
# (§5) Venipuncture. 3 ml/kg of blood (to a maximum of 40 cc) were drawn after a 2 hour fast between 10 am and 12 am as previously described (Modahl). EMLA (topical lidocaine cream) was placed on the antecubital region of both arms and covered with tegaderm prior to blood draw. 10 ml of blood was collected in heparinized tubes on ice until processing within 15 minutes. This aliquot was centrifuged at 4° C. at 3000 g for 20 minutes, after which the plasma was stored in 1 ml aliquots at −80° C. until further processing, at which time it was transported on dry ice to the laboratory. The remaining blood (up to 30 cc) was placed on ice and transported within 30 minutes of blood draw to the same lab. PBMC isolation, hormone treatment and cell culture. PBMCs were isolated from heparinized blood using Histopaque 1077 (Sigma-Aldrich, St. Louis, Mo.). Briefly, 5 ml of blood was diluted 1:1 in PBS and carefully layered onto 3 ml of Histopaque 1077 in a 50 ml conical centrifuge tube. Tubes were centrifuged at 400 g for 30 min at RT. The buffy coat was removed from the tube and washed three times in complete RPMI without phenol red. Cell counts and viability were determined using Trypan blue. Cell viability was >95%. Resultant PBMC's were suspended in complete RPMI with 10% charcoal stripped, dilapidated fetal calf serum (FCS) (Invitrogen, Carlsbad, Calif.) and added in 1 ml aliquots to 12 well plate with vehicle and vasopressin (10−8M) in RPMI+10% charcoal stripped, dilapidated FCS. Cells were incubated overnight (18-24 hr) before wells were harvested and rinsed. Cell suspensions were centrifuged at 500 g for 10 min at RT, and supernatant was aspirated. Buffer RLT Plus from the RNeasy Mini Plus Kit (QIAgen, Valencia, Calif.) was added to the cell pellets before vortexing to lyse cells. Samples were stored at −80° C. before RNA purification and isolation.
# (§6) RNA isolation and quantitation. Samples were thawed, vortexed, and placed in QIAshredder columns. Columns were centrifuged for 2 min at 15000 g. The homogenized lysate was transferred to a gDNA Eliminator spin column and centrifuged for 30 sec at 9000 g. Equal volumes of 70% ethanol were added to the eluent. The mixture was transferred to RNeasy spin columns and centrifuged for 15 sec at 9000 g. Columns were washed with Buffer RW1 and the Buffer RPE, centrifuging for 15 sec at 9000 g, each time discarding the eluent. Buffer RPE was again added and columns centrifuged for 2 min at 9000 g to dry the column. Columns were then centrifuged for 1 min at 15000 g. RNA was eluted with the addition of Nuclease-free water and spun for 1 min at 9000 g. RNA was examined by spectrophotometry and quantitated using the Ribogreen assay (Invitrogen, Carlsbad, Calif.). Samples were diluted 1:200. Standards of 0, 20, 100, 500, and 1000 ng/ml were made from E. coli ribosomal RNA in TE buffer. Ribogreen reagent (1:200) was added to samples and standards, and samples were read on a Bio-Tek FLx800 fluorescent plate reader. RNA was diluted in nuclease-free water to a final concentration of 150 ng/ml cDNA.
# (§7) cDNA construction and one-step real-time RT-PCR. Reverse transcription was performed using the SuperScript II Reverse Transcription Kit (Invitrogen, Carlsbad, Calif.). […]
# Gαs mRNA in PBMCs = Gαs mRNA in PBMCs exposed to vasopressin (real-time RT-PCR); type: cell-based, human
# Procedure: as §4, §5, §6, §7
# Gαq protein in PBMCs = assay: Gαq protein expression in PBMCs exposed to vasopressin (immunoblot); type: cell-based, human; design: Gαq protein expression, Control Vasopressin / Gαq protein expression, Average, Control Vasopressin: scale not given here
# Procedure: as §1, §2, §3
# [1] = ASD versus without ASD, both exposed to vasopressin
# [2] = PBMCs of individual children with ASD, immunoblot densitometry
# [3] = PBMCs of individual control children, immunoblot densitometry
# [4] = PBMCs of individual children with ASD, vasopressin 10−8M, 18-24 hr
# [5] = PBMCs of individual control children, vasopressin 10−8M, 18-24 hr
# [6] = average of autism group, vasopressin 10−8M
# [7] = average of control group, vasopressin 10−8M
smiles,measurement,setting,value
O=C(CCCN1CCC(O)(c2ccc(Cl)cc2)CC1)c1ccc(F)cc1 [haldol],Gαs levels in PBMCs under treatment,Gαs in PBMCs,decrease
"NC(=O)CC[C@@H]1NC(=O)[C@H](Cc2ccccc2)NC(=O)[C@H](Cc2ccc(O)cc2)NC(=O)[C@@H](N)CSSC[C@@H](C(=O)N2CCC[C@H]2C(=O)N[C@@H](CCCN=C(N)N)C(=O)NCC(N)=O)NC(=O)[C@H](CC(N)=O)NC1=O [Vasopressin, Arginine vasopressin]","Gαs protein expression after vasopressin exposure, patients with ASD lower than patients without ASD",Gαs protein in PBMCs; [1],about 37%
same,"Gαs protein expression, Autism Vasopressin",Gαs protein in PBMCs; [2],0.16 and 0.03 (2×) and 0.04 and 0.01 and 0.14 and 0 and 0.33 (2×) and 0.69 and 0.83 and 0.86 and 0.52 and 0.7
same,"Gαs protein expression, Control Vasopressin",Gαs protein in PBMCs; [3],0.3 and 0.83 and 0.35 and 1.63 and 0.33 and 0.19 and 0.48 and 0.29 and 1.26 and 0.51 and 0.62 and 0.67
same,"Gαs protein expression, Average, Autism Vasopressin",Gαs protein in PBMCs; average of autism group,.33
same,"Gαs protein expression, Average, Control Vasopressin",Gαs protein in PBMCs; average of control group,.54
same,change of Gαs protein expression on vasopressin exposure,Gαs protein in PBMCs; patients with ASD,down-regulation trend; also recorded: decreased
same,change of Gαs protein expression on vasopressin exposure,Gαs protein in PBMCs; patients without ASD,appeared to be higher; also recorded: up-regulating
same,"Gαq mRNA (% of control), Autism Vasopressin",Gαq mRNA in PBMCs; [4],7.45 % of control and 48.7 % of control and 96.6 % of control (2×) and 171.8 % of control and 43.6 % of control and 37.48 % of control and 13.87 % of control and 12.07 % of control and 24.1 % of control and 7.99 % of control and 48.3 % of control and 90.1 % of control and 90.18 % of control and 107.8 % of control and 8.62 % of control and 1.94 % of control and 30.78 % of control
same,"Gαq mRNA (% of control), Control Vasopressin",Gαq mRNA in PBMCs; [5],9.17 % of control and 3.36 % of control and 54.5 % of control and 23.7 % of control and 1.04 % of control and 12.94 % of control and 1.11 % of control and 100.5 % of control and 59.8 % of control and 146.7 % of control and 45.1 % of control and 16.42 % of control and 24.87 % of control and 26.4 % of control
same,"Gαq mRNA (% of control), Average, Autism Vasopressin",Gαq mRNA in PBMCs; [6],52.11 % of control
same,"Gαq mRNA (% of control), Average, Control Vasopressin",Gαq mRNA in PBMCs; [7],37.5 % of control
same,change of Gαq mRNA on vasopressin exposure,Gαq mRNA in PBMCs; healthy patients,increased
same,"Gαs mRNA (% of control), Autism Vasopressin",Gαs mRNA in PBMCs; [4],59.5 % of control and 151.6 % of control and 373.2 % of control and 65.9 % of control and 181.8 % of control and 66.3 % of control and 52.6 % of control and 77 % of control and 62 % of control and 54 % of control and 21.1 % of control and 114.8 % of control and 144.4 % of control and 67.6 % of control and 99.7 % of control and 147.3 % of control and 78.5 % of control and 43.7 % of control and 214.4 % of control
same,"Gαs mRNA (% of control), Control Vasopressin",Gαs mRNA in PBMCs; [5],200 % of control and 245.8 % of control and 137.6 % of control and 66.3 % of control and 42.7 % of control and 58.3 % of control and 120 % of control and 31.9 % of control and 33.1 % of control and 66.1 % of control and 30.8 % of control
same,"Gαs mRNA (% of control), Average, Autism Vasopressin",Gαs mRNA in PBMCs; [6],109.1 % of control
same,"Gαs mRNA (% of control), Average, Control Vasopressin",Gαs mRNA in PBMCs; [7],93.9 % of control
same,change of Gαs mRNA on vasopressin exposure,Gαs mRNA in PBMCs; healthy patients,increased
same,"Gαq protein expression after vasopressin exposure, patients with ASD less than patients without ASD",Gαq protein in PBMCs; [1],about 28%
same,"Gαq protein expression, Autism Vasopressin",Gαq protein in PBMCs; [2],4.17 and 12.58 and 0 (5×) and 9.53 and 0.36 and 1.26 and 4.64 and 4.01 and 0.19 and 1.13
same,"Gαq protein expression, Control Vasopressin",Gαq protein in PBMCs; [3],7.84 and 0.25 and 0.6 and 0 and 10.56 and 0.26 and 1.86 and 3.96 and 0.35 and 2.86 and 2.81 and 13.29
same,"Gαq protein expression, Average, Autism Vasopressin",Gαq protein in PBMCs; average of autism group,2.71
same,"Gαq protein expression, Average, Control Vasopressin",Gαq protein in PBMCs; average of control group,3.72
same,change of Gαq protein expression on vasopressin exposure,Gαq protein in PBMCs; patients with ASD,down-regulation trend; also recorded: decreased
same,change of Gαq protein expression on vasopressin exposure,Gαq protein in PBMCs; patients without ASD,appeared to be higher; also recorded: up-regulating
